Experimental data taken from patent US8586611B2 (priority 2005, dated 2013).

Experiments:
Assay type in all cases: in vivo
[1] = test system: Plasmopara viticola; assay: Test B: grape downy mildew, spray 24 h after inoculation (disease rating, 100 = 100% disease control); conditions: spray 24 h after inoculation, compounds without asterisk (not 40 or 10 ppm)
In short: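 This is a curative spray test, applied 24 h after inoculation. Compounds in 50/50 acetone–water with 250 ppm Trem 014 surfactant were sprayed to run-off on P. viticola-infected seedlings, with 200 ppm equating to 500 g/ha. Plants were kept 5 days in a 20 °C growth chamber, then 24 h humid, and scored 0–100 for disease control relative to controls.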

[2] = test system: Phytophthora infestans; assay: whole plant or invertebrate; conditions: tomato late blight; spray the day before inoculation; compounds without asterisk (not 40 or 10 ppm)
[3] = test system: Phytophthora infestans; assay: whole plant or invertebrate; conditions: tomato late blight; spray 17 h after inoculation; compounds without asterisk (not 40 or 10 ppm)
[4] = test system: Erysiphe graminis f. sp. tritici; assay: Test E: wheat powdery mildew, spray the day before inoculation (disease rating, 100 = 100% disease control); conditions: spray the day before inoculation, compounds without asterisk (not 40 or 10 ppm)
In short: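 Protective test: spores of E. graminis f. sp. tritici dusted on wheat seedlings one day after run-off spraying of test suspension (acetone/water with 250 ppm surfactant; 200 ppm = 500 g/ha). Ratings after 7 days in growth chamber at 20° C, 100 = full control, 0 = none, relative to controls.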

SMILES	Test B disease rating (100 = 100% disease control, 0 = no disease control) [1]	Test C disease rating (100 = 100% disease control, 0 = no disease control) [2]	Test D disease rating (100 = 100% disease control, 0 = no disease control) [3]	Test E disease rating (100 = 100% disease control, 0 = no disease control) [4]
CC[C@H](c1ccccc1)N(C)C(=O)c1csc(C2CCN(C(=O)Cc3ccccc3OC)CC2)n1 [compound 115]	100%	100%	99%	0%
CC[C@H](c1ccccc1)N(C)C(=O)c1csc(C2CCN(C(=O)Cc3cccc(C)c3)CC2)n1 [compound 116]	100%	49%	87%	0%
CC[C@H](c1ccccc1)N(C)C(=O)c1csc(C2CCN(C(=O)Cn3nc(C)cc3C)CC2)n1 [compound 118]	99%	100%	99%	0%
Cc1nc(C)n(CC(=O)N2CCC(c3nc(C(=O)N(C)[C@H](C)c4ccccc4)cs3)CC2)n1 [compound 120]	7%	51%	100%	0%
Cc1cn(CC(=O)N2CCC(c3nc(C(=O)N(C)[C@H](C)c4ccccc4)cs3)CC2)c(C)n1 [compound 121]	0%	47%	0%	0%
C[C@H](c1ccccc1)N(C)C(=O)c1csc(C2CCN(C(=O)Cn3cnc(C(F)(F)F)n3)CC2)n1 [compound 122]	28%	53%	96%	17%
CCCc1nc(C(F)(F)F)cn1CC(=O)N1CCC(c2nc(C(=O)N(C)[C@H](C)c3ccccc3)cs2)CC1 [compound 123]	13%	100%	47%	7%
Cc1cc(C(C)C)nn1CC(=O)N1CCC(c2nc(C(=O)N(C)[C@H](C)c3ccccc3)cs2)CC1 [compound 127]	0%	92%	0%	0%
CCc1nc(C)cn1CC(=O)N1CCC(c2nc(C(=O)N(C)[C@H](C)c3ccccc3)cs2)CC1 [compound 128]	0%	0%	0%	0%
Cc1ccc(C)c(CC(=O)N2CCC(c3nc(C(=O)N(C)C4CCCCc5ccccc54)cs3)CC2)c1 (stereo not shown) [compound 129]	0%	50%	57%	0%
Cc1ccc(C)c(CC(=O)N2CCC(c3nc(C(=O)N(C)[C@@H]4CCc5ccccc54)cs3)CC2)c1 [compound 130]	99%	54%	100%	0%
Cc1ccc(C)c(CC(=O)N2CCC(c3nc(C(=O)N(C)[C@H]4CCc5ccccc54)cs3)CC2)c1 [compound 131]	77%	55%	62%	0%
Cc1ccc(C)c(CC(=O)N2CCC(c3nc(C(=O)N(C)[C@H]4CCCc5ccccc54)cs3)CC2)c1 [compound 133]	77%	53%	79%	0%
Cc1ccc(C)c(CC(=O)N2CCC(c3nc(C(=O)N(C)C4CCCc5sccc54)cs3)CC2)c1 (stereo not shown) [compound 134]	97%	51%	100%	0%
Cc1ccc(C)c(CC(=O)N2CCC(c3nc(C(=O)N(C)C4CCCc5occc54)cs3)CC2)c1 (stereo not shown) [compound 135]	16%	51%	47%	0%
Cc1ccc(C)c(CC(=O)N2CCC(c3nc(C(=O)N(C)C4CCSc5ccccc54)cs3)CC2)c1 (stereo not shown) [compound 136]	77%	100%	80%	0%
Cc1ccc(C)c(CC(=O)N2CCC(c3nc(C(=O)N(C)C4CCOc5ccccc54)cs3)CC2)c1 (stereo not shown) [compound 137]	100%	51%	93%	0%
Cc1ccc(C)c(CC(=O)N2CCC(c3nc(C(=O)N(C)C4COc5ccccc54)cs3)CC2)c1 (stereo not shown) [compound 138]	91%	100%	37%	44%
CC(C)c1nccn1CC(=O)N1CCC(c2nc(C(=O)N(C)[C@H](C)c3ccccc3)cs2)CC1 [compound 139]	0%	0%	0%	0%
C[C@H](c1ccccc1)N(C)C(=O)c1csc(C2CCN(C(=O)Cn3cnc(C4CCCCC4)n3)CC2)n1 [compound 140]	0%	0%	0%	0%
C[C@H](c1ccccc1)N(C)C(=O)c1csc(C2CCN(C(=O)Cn3cnc(C(C)(C)C)c3)CC2)n1 [compound 141]	0%	0%	0%	0%
CCC(C)c1cc(C)n(CC(=O)N2CCC(c3nc(C(=O)N(C)[C@H](C)c4ccccc4)cs3)CC2)n1 (stereo partly shown) [compound 142]	0%	0%	0%	87%
COc1ccccc1NC(=O)N1CCC(c2nc(C(=O)N(C)[C@H](C)c3ccccc3)co2)CC1 [compound 157]	63%	100%	91%	0%
CN(Cc1cccnc1)C(=O)c1csc(C2CCN(C(=O)Cc3cccc(C(F)(F)F)c3)CC2)n1 [compound 163]	24%	55%	0%	0%
Cc1cccc(CC(=O)N2CCC(c3nc(C(=O)N(C)Cc4cccnc4)cs3)CC2)c1 [compound 164]	1%	60%	0%	0%
Cc1cccc(CC(=O)N2CCC(c3nc(C(=O)N(C)Cc4ccccn4)cs3)CC2)c1 [compound 165]	11%	14%	0%	0%
Cc1ccc(C)c(CC(=O)N2CCC(c3nc(C(=O)N(C)[C@H](C)C4CCCCC4)cs3)CC2)c1 [compound 166]	34%	68%	16%	0%
CN(Cc1ccccn1)C(=O)c1csc(C2CCN(C(=O)Cc3cccc(C(F)(F)F)c3)CC2)n1 [compound 168]	15%	8%	0%	0%
